# Test results reported in US11260036B2, “[18F]-labelled lactate derivative as PET radiotracer” (GRANDIS, priority 2016, dated 2022).
# Key:
# [1] = biological target: T1, rabbit muscle LDH (Oryctolagus cuniculus, UniProt P13491); experiment: Lactate dehydrogenase assay (reduction of 3-fluoropyruvate); assay type: biochemical; conditions: 10 IU rabbit muscle LDH, NADH 0.2 mM, 37° C., 24 h, HPLC-MS detection
# T1 construct: 10 IU of rabbit muscle LDH (Sigma); purchased Sigma; host or cells: rabbit muscle
# Description: A potential reduction of 3-fluoropyruvate to 3-fluoro-2-hydroxypropionate by lactate dehydrogenase (LDH) was measured in vitro using a previously reported protocol (Goncalves et al., Tetrahedron: Asymmetry, 1996, 7, 1237-1240).
# Briefly, 14.6 mg of nonradioactive 3-fluorpyruvate were dissolved in 4 mL of double distilled water containing 10 IU of rabbit muscle LDH (Sigma) and 5.3 IU of formate dehydrogenase (Sigma). The reaction was started by adding NADH to a final concentration of 0.2 mM and sodium formate to a final concentration of 40 mM. The final volume was adjusted to 5 mL with double distilled water. The reaction was carried out at 37° C. for 24 h under constant, gentle shaking at 120 rpm. Then, solution was spun through a 10 kDa filter to remove enzymes, and 3-fluoro-2-hydroxypropionate was detected by HPLC-MS using an Accela U(HPLC) equipped with a Luna Phenomenex 250*4.60 HPLC column and an ThermoScientific LTQ—ORBITRAP—XL fitted an electrospray ionization source working in negative mode.
# [2] = test system: SQD9 cells; experiment: In vitro tracer uptake assay, SQD9; assay type: cell-based, human; conditions: SQD9, 6 min after delivery of 45 μCi/ml of the tracer
# Source text: (§1) Cells and gene silencing. HeLa and SiHa human cervix squamous cell carcinoma and SDQ9 human laryngeal squamous cell carcinoma were from ATCC. Cells were routinely cultured in DMEM (Thermo Fischer) containing glucose (4.5 g/L), Glutamax and 10% FBS. MCT1-deficient and control SiHa cells were produced as previously described (De Saedeleer et al., Oncogene, 2014, 33, 4060-4068), using the following vectors from Open Biosystems: TRCN0000038340 (shMCT1-1) and TRCN0000038339 (shMCT1-2). Control shRNA (shCTR) was Addgene plasmid 1864.
# (§2) In vitro tracer uptake assay. A modified version of the ^14C-Lactate uptake assay described by Draoui et al., (Draoui et al., Bioorg Med Chem, 2013, 21, 7107-7117) was used. Briefly, 250,000 cells were plated in flat-bottom 24 well plates (t=0). When cells were attached (t=6 h), medium was replaced by DMEM without glucose and glutamine, containing 10% dialyzed FBS and 10 mM of L-lactate, pH 7.0. Cells were then incubated overnight at 37° C., 5% CO2. On the day of experiment, (t=24 h), cells medium was removed and cells were briefly washed twice with a modified KREBS solution without glucose (HEPES 25 mM, NaCl 120 mM, KCl 4.8 mM, KH2PO4 1.2 mM, MgSO4 1.2 mM, CaCl2 2 mM). […] Cells were lysed with NaOH 0.1 N, and ^18F activity was measured in the cell lysate using a Wiper Gold γ-counter (Laboratory Technologies). Activity is expressed as % of initial dose. […]
# [3] = test system: SiHa tumors; experiment: In vivo tracer uptake assay (PET/CT), mice bearing SiHa-shCTR and SiHa-shMCT1 tumors
# Description: In vivo tracer uptake assay. All in vivo experiments were performed with approval of UCL Comité d'Ethique pour l'Expérimentation Animale (approval ID 2014/UCL/MD/014) according to national and European animal care regulations. To avoid inter-subject variability, 500,000 SiHa-shCTR and SiHa-shMCT1 cells in a HBSS:Matrigel 1:1 solution were respectively injected in the left and right flank of same 6.5 week-old male NMRI nude mice. In another model, 1,000,000 SQD9 cells in a HBSS:Matrigel 1:1 solution were injected on the back of same 6.5 week-old male NMRI nude mice. Experiments were performed on tumors of ˜10 mm in diameter, i.e., about 3 weeks tumor cell inoculation. For intravenous injection, MCT1 inhibitor AR-C155858 (Tocris) was dissolved in 0.9% NaCl with 10% (2-hydroxypropyl)-β-cyclodextrin at a concentration of 2.5 mg/ml (Vijay et al., Pharm Res, 2015, 32, 1894-1906). For intravenous injection, MCT1 inhibitor AZD3965 (Selleckchem) was first dissolved in pure ethanol at a concentration of 100 mg/ml, then diluted in 0.9% NaCl with 10% (2-hydroxypropyl)-β-cyclodextrin at a final concentration of 2.5 mg/ml. (±)-[^18F]-3-fluoro-2-hydroxypropionate (150-250 μCO was injected in the tail vein of the animals 10 min after the delivery of AR-C155858 (5 mg/Kg), AZD3965 (5 mg/Kg), or vehicle (70 μL). At indicated times, a whole body 10-min static PET imaging (small-animal Mosaic PET Scan system, Philips Medical Systems) directly followed by a 10 min transmission CT scan (NanoSPECT/CT Small Animal Imager, Bioscan; source: 370 MBq ^137Cs; X-Ray tube voltage: 55 kVp; number of projections: 180; exposure time 1000 ms) were performed on isoflurane-anesthetized mice kept at 35° C. PET images were corrected for attenuation and reconstructed using fully 3D iterative algorithm 3D-RAMLA in a 128×128×120 matrix, with a voxel size of 1 mm^3. CT images were reconstructed with a voxel size of 0.221×0.221×0.221 mm^3. 2D Regions of interest (ROIs) were manually delineated on PET images using the PMOD software version 3.5 (PMOD technologies Ltd). Tumor localization was determined on PET/CT fused images. Ribcage and skin were used as internal and external limits, respectively. Tracer uptake is expressed as standard uptake value (SUV) calculated on the mean value of voxels within the manually defined 3D volume of interest (VOI).
# [4] = test system: HeLa cells; experiment: In vitro tracer uptake assay, HeLa; assay type: cell-based, human; conditions: 6 min after delivery of 45 μCi/ml of the tracer
# Source text: as §1, §2
# [5] = test system: SQD9 tumors; experiment: In vivo tracer uptake assay (PET/CT), mice bearing SQD9 tumors; conditions: IV 250 μCi, PET-CT
# Description: In vivo tracer uptake assay. All in vivo experiments were performed with approval of UCL Comité d'Ethique pour l'Expérimentation Animale (approval ID 2014/UCL/MD/014) according to national and European animal care regulations. To avoid inter-subject variability, 500,000 SiHa-shCTR and SiHa-shMCT1 cells in a HBSS:Matrigel 1:1 solution were respectively injected in the left and right flank of same 6.5 week-old male NMRI nude mice. In another model, 1,000,000 SQD9 cells in a HBSS:Matrigel 1:1 solution were injected on the back of same 6.5 week-old male NMRI nude mice. Experiments were performed on tumors of ˜10 mm in diameter, i.e., about 3 weeks tumor cell inoculation. For intravenous injection, MCT1 inhibitor AR-C155858 (Tocris) was dissolved in 0.9% NaCl with 10% (2-hydroxypropyl)-β-cyclodextrin at a concentration of 2.5 mg/ml (Vijay et al., Pharm Res, 2015, 32, 1894-1906). For intravenous injection, MCT1 inhibitor AZD3965 (Selleckchem) was first dissolved in pure ethanol at a concentration of 100 mg/ml, then diluted in 0.9% NaCl with 10% (2-hydroxypropyl)-β-cyclodextrin at a final concentration of 2.5 mg/ml. […] Tumor localization was determined on PET/CT fused images. […] Tracer uptake is expressed as standard uptake value (SUV) calculated on the mean value of voxels within the manually defined 3D volume of interest (VOI).
# [6] = test system: SiHa cells; experiment: In vitro tracer uptake assay, SiHa; assay type: cell-based, human; conditions: 6 min after delivery of 45 μCi/ml of the tracer
# Source text: as §1, §2
# [7] = biological target: T2, MCT1 (Homo sapiens, UniProt P53985); experiment: In vivo inhibition of tracer uptake by MCT1 inhibitors, SQD9 tumor-bearing mice (PET/CT); conditions: 5 mg/Kg IV 10 min before tracer, images 30 min after tracer; SQD9 tumors, liver
# T2 construct: the experiment was repeated using SQD9 human laryngeal squamous cell carcinoma cells in mice; endogenous in cells; host or cells: SQD9 xenograft tumours in NMRI nude mice
# T2 sequence (P53985 1-500): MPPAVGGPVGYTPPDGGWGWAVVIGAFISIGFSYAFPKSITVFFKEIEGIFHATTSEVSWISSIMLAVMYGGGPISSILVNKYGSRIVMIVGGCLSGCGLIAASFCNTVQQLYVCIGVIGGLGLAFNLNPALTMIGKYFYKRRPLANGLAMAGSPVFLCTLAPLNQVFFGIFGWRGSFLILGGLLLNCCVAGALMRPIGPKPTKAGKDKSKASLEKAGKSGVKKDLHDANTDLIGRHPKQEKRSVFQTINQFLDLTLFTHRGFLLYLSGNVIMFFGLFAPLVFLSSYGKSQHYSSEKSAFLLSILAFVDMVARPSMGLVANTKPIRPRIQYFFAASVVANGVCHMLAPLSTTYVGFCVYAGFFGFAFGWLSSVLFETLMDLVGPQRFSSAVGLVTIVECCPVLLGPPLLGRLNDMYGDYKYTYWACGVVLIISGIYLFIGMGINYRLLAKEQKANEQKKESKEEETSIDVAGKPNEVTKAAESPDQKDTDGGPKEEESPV
# T2 sequence (P35613 140-385 partner limits assumed): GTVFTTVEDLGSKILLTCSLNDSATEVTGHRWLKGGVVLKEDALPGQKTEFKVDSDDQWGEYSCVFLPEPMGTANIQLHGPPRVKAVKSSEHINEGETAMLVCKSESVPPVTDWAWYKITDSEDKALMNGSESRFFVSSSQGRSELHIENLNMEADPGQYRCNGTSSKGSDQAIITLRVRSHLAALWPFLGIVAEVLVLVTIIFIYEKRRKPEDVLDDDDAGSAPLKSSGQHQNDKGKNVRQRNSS
# Description: In vivo tracer uptake assay. […] In another model, 1,000,000 SQD9 cells in a HBSS:Matrigel 1:1 solution were injected on the back of same 6.5 week-old male NMRI nude mice. Experiments were performed on tumors of ˜10 mm in diameter, i.e., about 3 weeks tumor cell inoculation. […] 2D Regions of interest (ROIs) were manually delineated on PET images using the PMOD software version 3.5 (PMOD technologies Ltd). Tumor localization was determined on PET/CT fused images. Ribcage and skin were used as internal and external limits, respectively. Tracer uptake is expressed as standard uptake value (SUV) calculated on the mean value of voxels within the manually defined 3D volume of interest (VOI).
compound,measurement,setting,value
3-fluoropyruvate,reduction of 3-fluoropyruvate to 3-fluoro-2-hydroxypropionate by LDH,[1],can be reduced to 3-fluoralacate by lactate dehydrogenase (LDH)
"O=C(O)C(O)C[18F] (racemic) [(±)-[^18F]-3-fluoro-2-hydroxypropionate, [^18F]-3-fluoro-2-hydroxypropionic acid]",intracellular 18F dose,[2],~0.3 % of the initial dose
same,bone labeling indicating defluorination,[3]; 30 min after tracer injection,no detectable bone labeling
same,discrimination of SiHa-shCTR and SiHa-shMCT1 tumors by the tracer,[3]; 30 min after tracer injection,no apparent discrimination of SiHa-shCTR and SiHa-shMCT1
same,bone labeling indicating defluorination,[3]; 60 min after tracer injection,"spinal and joint labeling was detected, indicating that some defluorination had occurred"
same,time of best tumor contrast after tracer injection,"[3]; IV 150-250 μCi, PET/CT",30 min
same,labeling of other organs (tracer distribution),"[3]; IV 150-250 μCi, PET/CT, 30 min after tracer injection","the gut and the liver, were also labeled"
same,route of tracer clearance,[3]; bladder labeling before and after systemic MCT1 inhibition,urine is the preferred route
same,intracellular 18F dose,[4],~0.1 % of the initial dose
same,tracer uptake by SQD9 tumors,[5],the tumors captured and accumulated the tracer
same,intracellular 18F dose,[6],~0.1 % of the initial dose
Cc1[nH]nc(C(F)(F)F)c1Cc1sc2c(c1C(=O)N1C[C@](C)(O)CO1)c(=O)n(C)c(=O)n2C(C)C [AZD3965],change in tracer uptake (SUV) after MCT1 inhibitor,[7],highly significant decrease in tracer uptake in the tumors and liver
